Assay results as given in patent US20260176300A1, “N-ARYLPYRAZOLE NOD2 AGONISTS AS PROMOTERS OF IMMUNE CHECKPOINT INHIBITOR THERAPY” (THE SCRIPPS RESEARCH INSTITUTE, priority 2022, published 2026).
Entries after “also recorded” stand apart in the source; their conditions may differ.

Tests used:
[1] = tested on: human peripheral mononuclear blood cells (PBMCs); test: Cytokine release assay in primary human PBMCs; format: cell-based; settings: 10 μM, 24 h
Experimental: (§1) FIG. 3(A-H). NOD2 agonist TT030 activates cytokine production in vitro and improves immune checkpoint inhibitor treatment of tumor growth in vivo. A-D, Measurements of secreted cytokine levels from human peripheral mononuclear blood cells (PMBCs) treated with the indicated compounds for 24 h without or with lipopolysaccharide (LPS). E, Structures of TT030 and its enantiomer (TT030-ent). F, Activation of NOD1- and NOD2-expressing HEK-293T cells with the indicated compounds. C12-iE-DAP is a lipophilic version of the NOD1 agonist, iE-DAP. G, Growth profiles of B16-F10 subcutaneous tumors in wild-type C57BL/6 mice treated with 100 μg α-PD-L1 and 100 μg of the indicated compounds every other day starting at Day 7. H, Growth profiles of B16-F10 subcutaneous tumors in wild-type or Nod2^−/− C57BL/6 mice treated with 100 μg α-PD-L1 and 100 μg TT030 every other day starting at Day 7. Cytokine secretion assays and NOD activation assays were analyzed using a one-way ANOVA with Dunnett's multiple comparisons test compared to the DMSO control. Longitudinal tumor growth assays were analyzed using linear mixed-effects model analysis on the log transformed data. ns=not significant, *P<0.05, **P<0.01, ***P<0.001, ****P<0.0001.
FIG. 7(A-B). NOD2 agonist TT030 activates cytokine production in vitro. A-B, Measurements of secreted cytokine levels from human peripheral mononuclear blood cells (PMBCs) treated with the indicated compounds for 24 h without or with lipopolysaccharide (LPS). Cytokine secretion assays and NOD activation assays were analyzed using a one-way ANOVA with Dunnett's multiple comparisons test compared to the DMSO control. *P<0.05, **P<0.01.
Cytokine release assay. Human PMBCs were obtained from whole blood donated by healthy individuals via the Scripps Normal Blood Donor Service. Whole blood was diluted 1:1 with phosphate-buffered saline (PBS) containing 2% FBS and then layered onto Lymphoprep (STEMCELL Technologies, 07851) in SepMate-50 isolation tubes (STEMCELL Technologies, 85480). The discontinuous gradient was centrifuged for 10 min at 1,200×g, and mononuclear cells were removed by pouring off. Mononuclear cells were then resuspended in PBS+2% FBS and centrifuged for 3 min at 200×g twice before further use. Washed mononuclear cells were then aliquoted at 5×10^5 cells per well of a 48-well plate with 300 μL RPMI containing 10% FBS (complete RPMI). Cells were then diluted with 100 μL complete RPMI containing 50 μM of the test compound (10 μM final concentration). Then, 100 μL complete RPMI (-LPS) or 100 μL complete RPMI containing […] LPS (+LPS, 10 ng mL^−1 final concentration) was added. Cells were incubated overnight at 37° C. in 5% CO2, and conditioned medium was harvested and centrifuged for 5 min at 500×g to remove residual cells. Samples were used directly for cytokine analysis with the LEGENDPlex Human Inflammatory Panel 1 (BioLegend, 740809) according to the manufacturer's protocol. For analysis, 25 μL of the conditioned medium was used for −LPS samples, and 12.5 μL was used for the +LPS samples. On-bead ELISA readouts were measured using the standard PE and APC detection filter parameters on a ZE5 flow cytometer (Bio-Rad; 405, 488, 561, and 640 lasers) in the Scripps Research Flow Cytometry Core Facility. Raw data files were then imported into the LEGENDPlex Cloud Data Analysis software suite (BioLegend) and analyzed using the manufacturer's pre-set parameters.

[2] = tested on: B16-F10 subcutaneous tumors; test: B16-F10 tumor growth assay with anti-PD-L1 co-treatment; format: in vivo, mice; settings: for B16 tumor growth over time: wild-type C57BL/6 mice, 100 μg α-PD-L1 and 100 μg compound i.p. every other day
Experimental: as §1
Animals. Specific pathogen-free, eight-week old male C57BL/6J (B6, 000664) and B6.129S1—Nod2^tm1Flv/J (Nod2^−/−, 005763 from Flavell Lab, Yale School of Medicine) were obtained from The Jackson Laboratory. Animals were housed in autoclaved caging with SaniChip bedding and enrichment for nest building on a 12-hour light/dark cycle. Animals were provided gamma-irradiated chow (LabDiet, 5053) and sterile drinking water ad libitum. Animal care and experiments were conducted in accordance with NIH guidelines and approved by the Institutional Animal Care and Use Committee at Scripps Research (Protocol AUP-21-095).
Tumor growth assay. B16-F10 cells were subcultured on the day prior to harvesting for tumor inoculation. On the day of injection, cells were harvested using TrypLE Express, washed and resuspended in cold PBS, and counted with a hemocytometer. Cells were then resuspended at 2×10^6 cells mL^−1 in PBS and mixed 1:1 with Matrigel matrix (Corning; growth factor reduced, 356231). Cell suspensions were kept on ice prior to injection. Animals were anesthetized using 3% isoflurane, and their right flank was shaved with hair clippers. Animals were then subcutaneously injected with 100 μL of the cell suspension on their mid-right flank (1×10^5 cells per injection). Once tumors were established at roughly 25-100 mm^3, tumor volume was measured every other day. Digital calipers were used to measure the length and width of each tumor, and tumor volume was calculated as length×[…], where width was the smaller of the two measurements. […]

| Compound | IFNγ levels ([1]; without or with LPS) | interleukin-1 beta (IL-1B) in the medium ([1]; without or with LPS) | tumor necrosis factor alpha (TNFα) in the medium ([1]; without or with LPS) | B16 tumor growth over time [2] | IL-12p70 secretion ([1]; with and without LPS) | IL-18 production ([1]; without or with LPS) | IL-23 production ([1]; without or with LPS) | Anti-tumor activity in Nod2−/− mice ([2]; Nod2−/− vs. wild-type C57BL/6 mice, 100 μg α-PD-L1 and 100 μg TT030 every other day) |
| --- | --- | --- | --- | --- | --- | --- | --- | --- |
| CC(=O)N[C@H]1C(O)O[C@H](CO)[C@@H](O)[C@@H]1O[C@H](C)C(=O)N[C@@H](C)C(=O)N[C@H](CCC(=O)O)C(N)=O (stereo partly drawn) [MDP, (4R)-4-((2S)-2-((2R)-2-(((3R,4R,5S,6R)-3-acetamido-2,5-dihydroxy-6-(hydroxymethyl)tetrahydro-2H-pyran-4-yl)oxy)propanamido)propanamido)-5-amino-5-oxopentanoic acid, reference compound] | increased | significant increase | significant increase | significantly inhibited tumor growth |  |  |  |  |
| CCOC(=O)CC[C@@H](NC(=O)[C@@H](NC(=O)c1c(C)nn(-c2cc[nH]c(=O)c2)c1C)C(C)C)C(=O)OCC [TT030, Diethyl (3,5-dimethyl-1-(2-oxo-1,2-dihydropyridin-4-yl)-1H-pyrazole-4-carbonyl)-L-valyl-D-glutamate] | increased | equivalent concentrations | equivalent concentrations | anti-tumor activity was also observed; also recorded: equivalent anti-tumor activity as MDP | increase | production | production | loss in the anti-tumor activity |
